Type in all cases: cell-based
Series [1] concerns IGF-1. Kind of series: IGF-1 production by ELISA, human cartilage explants. Particulars: for IGF-1 production compared to IL-1 alone: human cartilage explants, 5 or 50 ug/mL (FIGS. 7, 8). The method, then:
Full thickness cartilage slices (20-25 mg) were dissected from the cartilage using a sterile scalpel blade. Four to five cartilage pieces that were approximately equal in size and weight were transferred to each well of a 24-well, flat bottom plate (Nuns, Denmark) containing DMEM:F12 (1:1) supplemented with antibiotics and 10% FCS and cultured for 24 hours. Subsequently the cartilage explants were cultured overnight in serum free media. The cartilage explants were treated with IL-β alone or with IL-β positive test agents for 72 hours in serum free media. Explants cultured in the absence of IL-β or test agents were used as controls. Additionally, the actions of kuromanin or cyanidin chloride were examined independently of IL-β exposure (5 ng/mL). Where appropriate, explants were exposed to test agents 15 minutes prior to the treatment with IL-β. Total glycosaminoglycan present in the culture supernatant was estimated as described below.
Human IGF-1 label in chondrocytes culture or cartilage explant media was quantified using a commercially available Human IGF-1 ELISA kit (R& D Systems) per manufacturer's directions.
On the technique in general: ELISA stands for enzyme-linked immunosorbent assay.

For series [2], the system named is IGF-1. Kind of series: IGF-1 gene expression in human synovial explants. Particulars: for IGF-1 gene expression and production: synovial explants, together with glucose, overall conclusion. The method, then: Synovial explants (N=6) were harvested from human donors undergoing either uni-compartmental or total knee replacement. In all but the first experiment, the specimens were trimmed of extraneous adipose tissue and washed in low glucose DMEM (1 g/l). The specimens in the first experiment were not trimmed of excess adipose tissue and were washed in high-glucose DMEM (4.5 g/L).
In the first experiment (n=2), the specimens were cultured for 48 hours in 0.1% calf serum and either high- or low-glucose DMEM. In the second tow experiments (n=4), the specimens were cultured for 48 hours in serum-free ITS (Insulin, Transferrin, Selenium) media diluted with either high- or low-glucose DMEM. IGF-1 gene expression. Briefly, total RNA was extracted from synovial tissue using RNeasy Total RNA Kit (Qiagen, Inc., Santa Clarita, Calif.). Real-time quantitative RT-PCR was done using Taqman RT-PCR reagents (Applied Biosystems, Foster City, Calif.).
(§1) Expression of IGF-1 was normalized to that of the housekeeping gene GAPDH. IGF-1 ELISA. Human IGF-1 protein secretion into the culture media was measured by ELISA (RD Systems, Minneapolis, Minn.). Synovial culture media was centrifuged to remove any particulates. Controls and samples were added to ELISA wells which were pre-coated with a monoclonal antibody specific for IGF-1. Any IGF-1 present would be expected to be bound by the immobilized antibody. After washing away any unbound substances, an enzyme-linked polyclonal antibody specific for IGF-1 was added to the wells. Following a wash to remove any unbound antibody-enzyme reagent. a substrate solution was added to the wells. The medial developed a color intensity in proportion to the amount of IGF-1 bound in the initial step. Optical density of each well was determined by using a microplate reader set to 450 nm. IGF-1 activity obtained by serial dilution of known protein concentrations.
(§2) Synovial explants (n=6) were harvested from human donors undergoing total knee replacement. The specimens were trimmed of extraneous adipose tissue. In the two experiments, the synovial specimens were washed in low-glucose DMEM (1 g/L) for a few hours and then placed in the assigned treatment groups. In subsequent experiments the synovial specimens were washed in low-glucoses DMEM for 24 hours before treatment.
(§3) In all experiments (n=4), the specimens were cultured for 48 hours in serum-free ITS (Insulin, Transferrin, Selenium) media diluted with either high- or low-glucose DMEM. In addition, various anthocyanins were added to both the high- and low-glucose groups. Low-glucose alone acted as a control group. After the two experiments, the level of media was adjusted relative to the weight of the tissue.
Briefly, total RNA was extracted from synovial tissue using RNeasy Total RNA Kit (Qiagen Inc., Santa Clarita, Calif.). Real-time quantitative RT-PCR was done using ‘ragman RT-PCR. reagents (Applied Biosystems, Foster City, Calif.). Expression of IGF-1 was normalized to that of the housekeeping gene GAPDH. The results of IGF-1 gene expression are only presented if detectable levels of low glucose alone were present and able to serve as a control group for relative-fold change in expression.

Series [3] deals with IGF-1. Briefly: IGF-1 ELISA of culture media of human synovial explants. Particulars: for IGF-1 protein release in media: high vs low glucose. The method, then: as §2, §3
as §1, with “Human IGF-1” for “Expression of IGF-1 was normalized to that of the housekeeping gene GAPDH. IGF-1 ELISA. Human IGF-1”, “by ELISA (R & D Systems, Minneapolis,” for “by ELISA (RD Systems, Minneapolis,”, “unbound antibody-enzyme reagent, a substrate” for “unbound antibody-enzyme reagent. a substrate”, “wells. The media developed a” for “wells. The medial developed a”, “nm. IGF-1 concentration in the sample was calculated by a standardized curve of IGF-I activity obtained” for “nm. IGF-1 activity obtained”

Series [4] relates to Human articular chondrocytes. Kind of series: MTT assay. The following applies: human articular chondrocytes in culture, 96 hours. The protocol: Chondrocytes were isolated from non-arthritic regions of adult human articular cartilage (N=3 donors) and expanded in tissue culture flasks in DMEM supplemented with 10% calf serum.
The following compounds were provided by Chromadex, Inc. and tested from 1 uM to 500 uM:
Human articular chondrocytes were seeded in 96-well culture trays at a density of 5000 cells/well and incubated with the selected concentration of the anthocyanin for 4 days. At the end of the 4 day period, fresh MTT (3(4,5-Dimethylthiazol-2-yl)-2,5-diphenyltetrazolium bromide) was made in PBS and filter sterilized. MTT (25 ul per well) was added to the cell culture and incubated for 5 hours in the CO2 incubator at 37° C. Yellow MIT is reduced to purple formazan in living cells. The supernatant from each well was removed, and 200 Ill of DMSO was added. A multi-channel pipette was used to dissolve crystals. The microplate was placed back into the incubator at 37° C. for 5 min. Formazan levels in each well were read using a spectrophotometer at 550 nm wavelength.
In general terms: Tetrazolium dyes change colour on reduction, which living cells bring about.

Where [5] appears, read: FIG. 22, volume titrated to tissue weight, in high glucose.
Where [6] appears, read: increasing glucose concentration, synovial tissue.

These results are taken from patent US9987296B2, “Compositions including anthocyanin or anthocyanidin for the prevention or treatment of Articular cartilage-associated conditions” (priority 2008, dated 2018).

Entries after “also recorded” stand apart in the source; their conditions may differ.

In the case of `Oc1cc(O)c2cc(O)c(-c3ccc(O)c(O)c3)[o+]c2c1` [Cyanidin chloride], the IGF-1 production result with IGF-1 [1] (explants, IL-1 with high dose 50 ug/mL) is given as “no benefit was observed”; with IGF-1 [1] (explants, IL-1 with low dose 5 ug/mL), “restoration of control IGF-1 production”. Further, the “basal IGF-1 production” value in the series with IGF-1 [1] (explants, high dose alone) is “did not express basal IGF-1 production”. Also, in the series with IGF-1 [1], the “IGF-1 production compared to IL-1 alone” value was “increased; also recorded: greater than IL-1 alone when treated with cyanidin alone or in combination with IL-1”. Further, in the series with IGF-1 [2] (FIG. 27, in the presence of high glucose), the “IGF-1 gene expression relative to low glucose alone” value is given as “highest expression levels”. Also, the “IGF-1 gene expression and production” value in the series with IGF-1 [2] is “elevate IGF-1 gene expression and production”. Also, the “IGF-1 protein levels in media” value in the series with IGF-1 [3] (FIG. 21, 7 ml of media regardless of sample weight, with High Glucose, listed as Cyanidin) is recorded as “highest IGF-1 protein levels”; with IGF-1 [3] (FIG. 21, 7 ml of media regardless of sample weight, with High Glucose, listed as cyanidin), “highest levels of IGF-1 in media”; in the series on IGF-1 [3] (FIG. 22, volume titrated to tissue weight, combined with low glucose, listed as Cyanidin), “greatest effect”; in the series on IGF-1 [3] (FIG. 22, volume titrated to tissue weight, combined with low glucose, listed as cyanidin), “greatest production of IGF-1 protein levels”; with IGF-1 [3] (setting [5]), “inhibitory”. In addition, in the series with IGF-1 [3] (FIG. 26, lower anthocyanin concentration (5 mM), in the presence of low glucose), the “level of IGF-1 protein in media” value is “highest level of IGF-1 protein”. In series [4], this molecule showed a non-toxic concentration of 100 µM.

In the case of `OC[C@H]1O[C@@H](Oc2cc3c(O)cc(O)cc3[o+]c2-c2ccc(O)c(O)c2)[C@H](O)[C@@H](O)[C@@H]1O.[Cl-]` [Kuromanin chloride], the “IGF-1 production compared to IL-1 alone” value in the series on IGF-1 [1] is reported as “increased; also recorded: greater than IL-1 alone when treated with kuromanin alone or in combination with IL-1”. In addition, the IGF-1 gene expression result in the series with IGF-1 [2] (FIG. 24, in the presence of high glucose) is recorded as “inhibitory”. Further, the “IGF-1 gene expression relative to low glucose alone” value in the series on IGF-1 [2] (FIG. 24, in the presence of low glucose) worked out at 3 fold. Moreover, the “IGF-1 gene expression and production” value in the series with IGF-1 [2] was “elevate IGF-1 gene expression and production”. For the same molecule, the “IGF-1 protein levels in media” value in the series with IGF-1 [3] (FIG. 22, volume titrated to tissue weight, combined with low glucose, listed as Kuromanin) was “greatest effect”; in the series on IGF-1 [3] (FIG. 22, volume titrated to tissue weight, combined with low glucose, listed as kuromanin), “greatest production of IGF-1 protein levels”; with IGF-1 [3] (setting [5]) it was “inhibitory”. This molecule also had a non-toxic concentration in series [4] of 100 µM.

In the case of `O=C[C@H](O)[C@@H](O)[C@H](O)[C@H](O)CO` [glucose], the “IGF-1 gene expression relative to low glucose alone” value with IGF-1 [2] (FIG. 24, High glucose alone) was “over 4 fold”; in the series with IGF-1 [2] (FIG. 27, High Glucose alone, grossly inflamed sample (RH)), “highest expression levels”. The “increase in IGF-1 gene expression compared to low glucose alone” value in the series on IGF-1 [2] (FIG. 28, High Glucose alone) is 12 fold. For the same molecule, the “increase of IGF-1 gene expression” value in the series with IGF-1 [2] (high (4.5 g/L) vs low (1 g/L) glucose, 48 hours, three donors) is given as “up to 5 fold”. The IGF-1 gene expression result in the series with IGF-1 [2] (setting [6]) was “increase both IGF-1 gene expression and IGF-1 release; also recorded: significantly increase; also recorded: consistently increased IGF-1 gene expression”. Besides, the “level of IGF-1 protein in media” value with IGF-1 [3] (FIG. 23, volume titrated to tissue weight, High Glucose alone (highest level)) is listed as “above 2.00 ng/ml”; in the series with IGF-1 [3] (FIG. 25, volume titrated to tissue weight, High Glucose alone), “highest level of IGF-1 protein”; in the series with IGF-1 [3] (FIG. 26, High Glucose alone), “highest level of IGF-1 protein”. In the series with IGF-1 [3] (High Glucose alone, across the experiments of Example 7), the IGF-I protein expression result is recorded as “most consistent increase in IGF-I protein expression”. The “IGF-1 levels in media, on average” value with IGF-1 [3] (high (4.5 g/L) vs low (1 g/L) glucose, 48 hours, 6 donors) is “more than doubled”. In addition, the “increase of IGF-1 in media, tissue that responded the most” value in the series with IGF-1 [3] (high glucose, donor undergoing unicompartmental arthroplasty) turned out to be 5 ×. Further, the “IGF-1 protein release in media” value is listed as “significant response” in the series on IGF-1 [3] (four donors) and “no effect on IGF-1 protein release in media” with IGF-1 [3] (two donors). The IGF-1 secretion entry in the series with IGF-1 [3] (setting [6]) is “increase both IGF-1 gene expression and IGF-1 release; also recorded: increased IGF-1 secretion in synovial tissue, but in a donor dependent fashion”.
